Values of other authors as cited in patent US20140221490A1, “METHODS OF TREATING PAIN” (Hospira, Inc., priority 2011, published 2014).
Read-outs that look alike come from different tables or passages of the source.

Conditions: cited from earlier work; for Prot. bind., drug fraction bound to protein (fP): plasma; for Cmax: read-out: Cmax, maximum drug concentration in plasma, based on the drug's pharmacokinetics and administration of a normal drug dose; for K1:1, stability constant of 1:1 inclusion complex with HPβCD: literature reference

Row | Structure (SMILES) | Vd, volume of distribution [L/kg] | Prot. bind., drug fraction bound to protein (fP) [%] | Cmax [µM] | K1:1, stability constant of 1:1 inclusion complex with HPβCD | K1:1, stability constant of 1:1 inclusion complex with HPβCD (listed as fenofibrate) [M⁻¹]
1 | CC(=O)Nc1ccc(O)cc1 [Acetaminophen] | 0.95 | 20 | 50 |  | 
2 | COc1ccnc(C[S+]([O-])c2nc3ccc(OC(F)F)cc3[nH]2)c1OC (stereo not drawn) [Pantoprazole] | 0.15 | 98 | 6.5 | 420^41 M^−1 | 
3 | CCc1cccc2c3c([nH]c12)C(CC)(CC(=O)O)OCC3 (stereo not drawn) [Etodolac] | 0.4 | 99 | 170 |  | 
4 | O=C(O)CCc1nc(-c2ccccc2)c(-c2ccccc2)o1 [Oxaprozin] | 0.15 | 99 | 780 |  | 
5 | COc1ccccc1OCCNCC(O)COc1cccc2[nH]c3ccccc3c12 (stereo not drawn) [Carvedilol] | 1.7 | 98 | 400 | 580^7 M^−1 | 
6 | C[C@]12CC[C@H]3[C@@H](CCC4=CC(=O)CC[C@@]43C)[C@@H]1CC[C@@H]2O [Testosterone] |  | 98 |  |  | 
7 | CN1CC(=O)N2[C@H](c3ccc4c(c3)OCO4)c3[nH]c4ccccc4c3C[C@@H]2C1=O [Tadalafil] | 0.9 | 94 | 1.3 | 360^46 M^−1 | 
8 | CC(C(=O)O)c1cccc(C(=O)c2ccccc2)c1 (stereo not drawn) [Ketoprofen] | 0.15 |  |  |  | 
9 | C=CC1=C(C(=O)O)N2C(=O)[C@@H](NC(=O)/C(=N\O)c3csc(N)n3)[C@H]2SC1 [Cefdinir] | 0.35 | 70 | 7.3 | 59^8 M^−1 | 
10 | CCCc1nn(C)c2c(=O)[nH]c(-c3cc(S(=O)(=O)N4CCN(C)CC4)ccc3OCC)nc12 [Sildenafil] | 1.5 | 96 | 0.93 |  | 
11 | Clc1ccc(COC(Cn2ccnc2)c2ccc(Cl)cc2Cl)c(Cl)c1 (stereo not drawn) [Miconazole] | 20 | 92 | 0.029 |  | 
12 | CCNC(=O)CCC/C=C\C[C@@H]1[C@@H](/C=C/[C@@H](O)CCc2ccccc2)[C@H](O)C[C@@H]1O [Bimatoprost] | 0.67 | 88 | 0.00019 | 1,900^i M^−1 | 
13 | C[C@]12CC[C@@H]3c4ccc(O)cc4CC[C@H]3[C@@H]1CC[C@@H]2O [Estradiol] | 1 | 97 | 0.00053 | 2,000^22 M^−1 | 
14 | CNC1=Nc2ccc(Cl)cc2C(c2ccccc2)=[N+]([O-])C1 [Chlordiazepoxide] |  | 96 |  |  | 
15 | CC(C)OC(=O)C(C)(C)Oc1ccc(C(=O)c2ccc(Cl)cc2)cc1 [Fenofibrate] | 0.9 | 99 | 28 | 2^24 M^−1 | 2
16 | COc1ccc2cc(CCC(C)=O)ccc2c1 [Nabumetone] | 0.2 | 99 | 160 | 3,000^35 M^−1 | 
18 | CC(C)Cc1ccc(C(C)C(=O)O)cc1 (stereo not drawn) [Ibuprofen] |  |  | 280 | 5,000^31 M^−1 | 
